According to ChEMBL document CHEMBL5108009, “Positron Emission Tomography (PET) Imaging Tracers for Serotonin Receptors” (J Med Chem, 2022):

What was measured:
[1] = target: T1, Alpha-1A adrenergic receptor (Homo sapiens, UniProt P35348); assay: Inhibition of alpha 1A adrenergic receptor (unknown origin)
T1 sequence (P35348 whole entry): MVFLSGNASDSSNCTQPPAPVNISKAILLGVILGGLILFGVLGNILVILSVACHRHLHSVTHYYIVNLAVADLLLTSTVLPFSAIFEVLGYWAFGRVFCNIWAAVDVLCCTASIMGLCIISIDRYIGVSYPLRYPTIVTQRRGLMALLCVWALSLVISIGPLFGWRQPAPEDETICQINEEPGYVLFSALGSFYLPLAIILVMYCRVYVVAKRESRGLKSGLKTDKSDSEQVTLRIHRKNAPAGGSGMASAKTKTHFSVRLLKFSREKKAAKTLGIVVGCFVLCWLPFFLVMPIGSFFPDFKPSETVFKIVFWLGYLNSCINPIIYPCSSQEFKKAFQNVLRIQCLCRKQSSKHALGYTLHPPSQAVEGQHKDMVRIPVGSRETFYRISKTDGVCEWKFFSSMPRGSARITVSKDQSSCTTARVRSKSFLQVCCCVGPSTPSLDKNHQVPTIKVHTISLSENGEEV

Macaca mulatta [2] = organism: Macaca mulatta; assay: Binding affinity to rhesus monkey mesial temporal cingulate cortex 5-HT1A; format: tissue-based; details: filed as antagonist, tested as the 18F-labelled form
Macaca mulatta [3] = organism: Macaca mulatta; assay: Binding affinity to rhesus monkey dorsal anterior cingulate cortex 5-HT1A; format: tissue-based; details: filed as antagonist, tested as the 18F-labelled form
[4] = target: T2, 5-hydroxytryptamine receptor 1A (Homo sapiens, UniProt P08908); assay: Binding affinity to human recombinant 5-HT1A expressed in CHO cells assessed as inhibition constant; format: cell-based
T2 sequence (P08908 whole entry): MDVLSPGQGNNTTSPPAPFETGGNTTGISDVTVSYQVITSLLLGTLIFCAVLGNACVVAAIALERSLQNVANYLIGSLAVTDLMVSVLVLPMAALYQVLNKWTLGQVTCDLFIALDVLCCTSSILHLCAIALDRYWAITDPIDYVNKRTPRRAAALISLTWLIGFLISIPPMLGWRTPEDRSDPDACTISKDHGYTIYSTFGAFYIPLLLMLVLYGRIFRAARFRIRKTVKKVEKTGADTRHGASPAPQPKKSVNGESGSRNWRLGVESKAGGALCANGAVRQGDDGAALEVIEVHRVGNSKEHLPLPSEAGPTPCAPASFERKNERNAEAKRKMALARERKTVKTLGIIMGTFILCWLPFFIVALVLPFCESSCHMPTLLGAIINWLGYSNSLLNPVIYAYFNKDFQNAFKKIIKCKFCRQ

[5] = target: T3, 5-hydroxytryptamine receptor 7 (Homo sapiens, UniProt P34969); assay: Binding affinity to human recombinant 5-HT7 receptor expressed in CHO cells assessed as inhibition constant; format: cell-based
[6] = target: T4, 5-hydroxytryptamine receptor 2C (Homo sapiens, UniProt P28335); assay: Binding affinity to human 5-HT2C assessed as inhibition constant
T4 sequence (P28335 whole entry): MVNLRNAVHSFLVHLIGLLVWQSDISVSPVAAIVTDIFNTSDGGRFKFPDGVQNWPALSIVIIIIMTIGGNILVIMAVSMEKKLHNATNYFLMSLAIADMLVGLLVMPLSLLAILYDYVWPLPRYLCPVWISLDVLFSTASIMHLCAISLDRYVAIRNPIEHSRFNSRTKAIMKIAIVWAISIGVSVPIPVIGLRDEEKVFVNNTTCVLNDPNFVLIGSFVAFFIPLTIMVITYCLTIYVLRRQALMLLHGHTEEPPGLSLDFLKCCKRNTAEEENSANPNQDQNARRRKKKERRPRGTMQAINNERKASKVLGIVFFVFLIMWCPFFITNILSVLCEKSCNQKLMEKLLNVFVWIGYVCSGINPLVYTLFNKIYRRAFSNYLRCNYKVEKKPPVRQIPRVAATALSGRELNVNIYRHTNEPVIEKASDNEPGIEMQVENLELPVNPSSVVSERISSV

[7] = target: 5-hydroxytryptamine receptor 7 (Rattus norvegicus, UniProt P32305); assay: Binding affinity to rat 5-HT7 receptor assessed as inhibition constant
[8] = target: T3, 5-hydroxytryptamine receptor 7; assay: Binding affinity to human recombinant 5-HT7 receptor assessed as inhibition constant
[9] = target: T2, 5-hydroxytryptamine receptor 1A
[10] = Ratio of drug biodistribution in rat hippocampus to cerebellum at 30 mins postinjection; format: ADME, organism-based; details: in vivo, 0.5 h
[11] = target: T5, 5-hydroxytryptamine receptor 1A (Rattus norvegicus, UniProt P19327); assay: Displacement of [3H]-8-OH-DPAT from Sprague-Dawley rat hippocampal membrane 5HT1A receptor incubated for 10 mins by liquid scintillation analysis; format: cell membranes, Hippocampus
T5 sequence (P19327 whole entry): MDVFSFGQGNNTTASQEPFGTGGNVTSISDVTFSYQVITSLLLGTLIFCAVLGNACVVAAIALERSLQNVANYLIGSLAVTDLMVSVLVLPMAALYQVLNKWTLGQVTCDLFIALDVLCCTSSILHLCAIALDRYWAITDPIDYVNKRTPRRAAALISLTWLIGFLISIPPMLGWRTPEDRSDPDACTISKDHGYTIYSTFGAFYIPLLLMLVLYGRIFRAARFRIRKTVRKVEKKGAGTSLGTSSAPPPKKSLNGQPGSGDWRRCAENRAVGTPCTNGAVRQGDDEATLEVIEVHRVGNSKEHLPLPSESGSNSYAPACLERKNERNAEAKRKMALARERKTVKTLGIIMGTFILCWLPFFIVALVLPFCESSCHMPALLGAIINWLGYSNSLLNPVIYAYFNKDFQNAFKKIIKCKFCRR

[12] = Drug uptake in cynomolgus monkey brain treated with WAY-100635 followed by compound 230 Ci/mmol, iv measured at 2.5 mins postinjection by PET imaging relative to control; format: ADME, organism-based, Macaca fascicularis; details: in vivo
[13] = Ratio of drug uptake in baboon anterior cingulate cortex to cerebellum at 175 mins; format: ADME, tissue-based, Papio; details: in vivo, 2.917 h
[14] = Ratio of drug uptake in baboon insular cortex to cerebellum at 175 mins; format: ADME, tissue-based, Papio; details: in vivo, 2.917 h
[15] = Ratio of drug uptake in baboon hippocampus to cerebellum at 175 mins; format: ADME, tissue-based, Papio; details: in vivo, 2.917 h
[16] = Ratio of drug distribution in cynomolgus monkey hippocampus to cerebellum measured at 30 mins postinjection; format: ADME, organism-based, Macaca fascicularis; details: in vivo, 0.5 h
[17] = Drug uptake in cynomolgus monkey in brain administered IV measured at 7.5 mins relative to control; format: ADME, tissue-based, Macaca fascicularis; details: in vivo, 0.125 h
[18] = Drug metabolism in plasma (unknown origin) assessed as parent compound remaining measured at 55 mins relative to control; format: ADME; details: read-out: Stability
[19] = target: T5, 5-hydroxytryptamine receptor 1A; assay: Displacement of [3H]-8-OH-DPAT from rat hippocampal membrane 5HT1A receptor by CEREP assay; format: cell membranes, Hippocampus
[20] = target: Alpha-1A adrenergic receptor (Homo sapiens) (UniProt P35348); assay: Binding affinity to alpha 1A adrenergic receptor (unknown origin); details: filed as antagonist
[21] = target: T3, 5-hydroxytryptamine receptor 7; assay: Binding affinity to 5-HT7 receptor (unknown origin) assessed as inhibition constant
[22] = target: T1, Alpha-1A adrenergic receptor; assay: Binding affinity to alpha 1A adrenergic receptor (unknown origin) assessed as inhibition constant
D(4) dopamine receptor = D(4) dopamine receptor (Homo sapiens, UniProt P21917); assay: Binding affinity to D4 receptor (unknown origin) assessed as inhibition constant
[23] = target: 5-hydroxytryptamine receptor 2A (Homo sapiens, UniProt P28223); assay: Binding affinity to human 5-HT2A transfected in human tsA201 cells assessed as inhibition constant incubated for 2 hrs by scintillation counter analysis; format: cell-based
[24] = target: 5-hydroxytryptamine receptor 1A (Homo sapiens) (UniProt P08908); assay: Binding affinity to 5-HT1A receptor (unknown origin); details: filed as agonist
[25] = Drug uptake in rat brain; format: ADME, tissue-based; details: in vivo
[26] = Biodistribution in rat assessed as drug uptake measured as percentage of injected dose per gram of tissue relative to control; format: ADME, organism-based; details: in vivo

T3 sequence (P34969 whole entry): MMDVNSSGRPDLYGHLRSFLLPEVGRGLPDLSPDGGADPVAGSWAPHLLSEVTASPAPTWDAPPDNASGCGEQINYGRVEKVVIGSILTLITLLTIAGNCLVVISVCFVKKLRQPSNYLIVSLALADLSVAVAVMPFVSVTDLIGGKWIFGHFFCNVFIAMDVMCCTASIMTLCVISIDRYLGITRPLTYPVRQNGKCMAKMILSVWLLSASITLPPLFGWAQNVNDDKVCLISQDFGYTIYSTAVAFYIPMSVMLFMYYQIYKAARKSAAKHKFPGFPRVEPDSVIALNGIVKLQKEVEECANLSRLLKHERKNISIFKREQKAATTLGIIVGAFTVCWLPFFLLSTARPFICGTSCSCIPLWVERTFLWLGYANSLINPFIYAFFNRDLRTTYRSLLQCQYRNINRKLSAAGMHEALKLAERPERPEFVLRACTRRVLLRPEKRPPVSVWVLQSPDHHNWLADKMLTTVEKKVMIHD
5-hydroxytryptamine receptor 2A, sequence (P28223 whole entry): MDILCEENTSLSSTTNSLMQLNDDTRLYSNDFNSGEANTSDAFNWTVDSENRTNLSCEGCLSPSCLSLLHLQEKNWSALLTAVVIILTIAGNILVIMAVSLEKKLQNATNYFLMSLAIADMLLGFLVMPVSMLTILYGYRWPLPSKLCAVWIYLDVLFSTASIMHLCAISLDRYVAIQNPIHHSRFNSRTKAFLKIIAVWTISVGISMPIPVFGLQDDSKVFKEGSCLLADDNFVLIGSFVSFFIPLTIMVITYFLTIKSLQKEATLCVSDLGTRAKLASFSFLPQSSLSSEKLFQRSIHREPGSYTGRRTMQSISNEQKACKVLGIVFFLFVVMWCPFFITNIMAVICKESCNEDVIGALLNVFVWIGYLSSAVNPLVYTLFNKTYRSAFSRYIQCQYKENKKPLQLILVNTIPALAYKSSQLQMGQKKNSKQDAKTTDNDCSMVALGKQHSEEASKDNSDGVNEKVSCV
5-hydroxytryptamine receptor 7 (Rattus norvegicus, UniProt P32305), sequence (P32305 whole entry): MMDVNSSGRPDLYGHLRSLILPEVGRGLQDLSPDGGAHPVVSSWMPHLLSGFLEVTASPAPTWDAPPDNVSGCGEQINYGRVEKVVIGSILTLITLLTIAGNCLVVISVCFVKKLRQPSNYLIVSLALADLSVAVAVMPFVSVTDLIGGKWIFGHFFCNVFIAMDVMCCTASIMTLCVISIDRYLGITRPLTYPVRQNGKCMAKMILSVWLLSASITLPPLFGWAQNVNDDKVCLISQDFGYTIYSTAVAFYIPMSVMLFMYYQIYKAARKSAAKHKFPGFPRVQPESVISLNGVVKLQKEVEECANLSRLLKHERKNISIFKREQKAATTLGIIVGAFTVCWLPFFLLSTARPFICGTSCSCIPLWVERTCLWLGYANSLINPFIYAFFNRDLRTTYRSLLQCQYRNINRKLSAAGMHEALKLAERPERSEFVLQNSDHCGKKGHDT
D(4) dopamine receptor, sequence (P21917 whole entry): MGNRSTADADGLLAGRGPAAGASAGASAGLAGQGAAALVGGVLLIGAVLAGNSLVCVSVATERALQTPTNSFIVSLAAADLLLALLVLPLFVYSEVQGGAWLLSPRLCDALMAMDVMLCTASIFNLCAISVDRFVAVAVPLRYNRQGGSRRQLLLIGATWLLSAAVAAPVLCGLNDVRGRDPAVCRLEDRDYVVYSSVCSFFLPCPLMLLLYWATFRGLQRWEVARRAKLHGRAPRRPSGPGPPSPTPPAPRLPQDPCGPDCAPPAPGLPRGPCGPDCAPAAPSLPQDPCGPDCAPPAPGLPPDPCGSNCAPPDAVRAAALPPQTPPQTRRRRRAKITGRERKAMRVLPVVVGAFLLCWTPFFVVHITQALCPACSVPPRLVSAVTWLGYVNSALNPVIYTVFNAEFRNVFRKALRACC

[11CH3]Oc1cccc2c1CCCC2CCCN1CCN(c2ccccc2)CC1 (centres undefined)
IC50 [1]: 43 nM

COc1ccccc1N1CCN(CCN(c2ccccn2)C(=O)[C@H]2CC[C@H](CF)CC2)CC1
Bmax (Macaca mulatta [2]): 42 pmol/mL
Bmax (Macaca mulatta [3]): 36 pmol/mL

COc1ccccc1N1CCN(CCC[C@H]2CCCN2S(=O)(=O)c2ccc(F)cc2)CC1
Ki [4]: 6.8 nM
Ki [5]: 2.6 nM

COc1c(OCCF)cccc1[C@H](O)C1CCN(CCc2ccc(F)cc2)CC1
Ki [6]: 71 nM

CC1(CCCCN2CCN(c3cccc(OCCF)c3)CC2)C(=O)Nc2ccccc21 (centres undefined)
Ki [7]: 5.6 nM

Cc1ccc(N2CCN(CCCCC3C(=O)Nc4ccccc43)CC2)cc1 (centres undefined)
Ki [8]: 1.1 nM

COc1ccccc1N1CCN(CCN(C(=O)c2ccc([18F])cc2)c2ncccn2)CC1
Ki [9]: < 1 nM
Ratio [10]: 5.5

Cc1ccc2c(c1O)-c1cccc3c1C(C2)N(C)CC3 (centres undefined)
Ki [11]: 0.45 nM

COc1ccccc1N1CCN(CCC[C@H]2CCCN2S(=O)(=O)c2ccccc2F)CC1
Ki [4]: 4.1 nM
Ki [5]: 1.9 nM

COc1ccccc1N1CCN(CC(C)N(c2ccccn2)[11C](=O)C2CCCCC2)CC1 (racemic)
Ki [9]: 0.91 nM
Drug uptake [12]: 4.8%

Cn1c(=O)cnn(CCCCN2CCN(c3ccccc3OCC[18F])CC2)c1=O
Ratio [13]: 2.3
Ratio [14]: 1.8
Ratio [15]: 4

COc1ccccc1N1CCN(CCN(C(=O)C2CCCCC2)c2cccc([18F])n2)CC1
Ratio [16]: 1.4
Drug uptake [17]: 4.33%
remaining at 55 min [18]: 20%

COc1ccccc1N1CCN(CCCCn2ccnc2SC)CC1
IC50 [19]: 0.58 nM
K [20]: 3 nM

COc1cccc(N2CCN(CCCCn3ncc(=O)n(C)c3=O)CC2)c1
Ki [21]: 12.9 nM
Ki [9]: 0.15 nM
Ki [22]: 6.75 nM
Ki (D(4) dopamine receptor): 21.8 nM

COc1cc(CCNCc2ccccc2OC)c(OCC[18F])cc1Br
Ki [23]: < 1.2 nM

COc1ccccc1N1CCN(CC(O)COc2cccc3c2SCCC3)CC1 (centres undefined)
K [24]: 5 nM

COc1ccccc1N1CCN(CCCCN(C)C(=O)c2cnc(SC)n2C)CC1
IC50 [19]: 0.86 nM
K [20]: 5.45 nM

COc1ccc2cccc(N3CCN(CCNC(=O)c4ccc([18F])cc4)CC3)c2c1
Ki [9]: 0.98 nM
SUV [25]: 2

COc1ccccc1N1CCN(CCCCN(C)C(=O)c2cnc(S[11CH3])n2C)CC1
Drug uptake [26]: 0.37 % ID/g
